Source: the kinase profiling compilation of Christmann-Franck et al. (2016)
Values joined by “and” are separate entries in the source; they are usually repeats but may differ in a detail not shown here. Equal values may be shown once.

Tests used:
Test in all cases: radiometric filter-binding kinase assay, Kinase HotSpot
Conditions in all cases: compound 0.5 µM; ATP 10 µM
[1] = biological target: AKT2 (human) (UniProt P31751)
[2] = biological target: AURKB (human) (UniProt Q96GD4)
[3] = biological target: AXL (human) (UniProt P30530)
[4] = biological target: CAMKK1 (human) (UniProt Q8N5S9)
[5] = biological target: CDK3 CCNE1 (human) (UniProt Q00526+P24864)
[6] = biological target: CDK6 CCND1 (human) (UniProt Q00534+P24385)
[7] = biological target: CLK2 (human) (UniProt P49760)
[8] = biological target: CSNK1A1 (human) (UniProt P48729)
[9] = biological target: CSNK2A2 (human) (UniProt P19784)
[10] = biological target: EPHA4 (human) (UniProt P54764)
[11] = biological target: ERBB4 (human) (UniProt Q15303)
[12] = biological target: HIPK4 (human) (UniProt Q8NE63)
[13] = biological target: IKBKE (human) (UniProt Q14164)
[14] = biological target: KIT (human) (UniProt P10721)
[15] = biological target: LRRK2 (human) (UniProt Q5S007)
[16] = biological target: MAP3K10 (human) (UniProt Q02779)
[17] = biological target: MAP3K9 (human) (UniProt P80192)
[18] = biological target: MAPK11 (human) (UniProt Q15759)
[19] = biological target: MAPK3 (human) (UniProt P27361)
[20] = biological target: MAPKAPK2 (human) (UniProt P49137)
[21] = biological target: MELK (human) (UniProt Q14680)
[22] = biological target: MST1R (human) (UniProt Q04912)
[23] = biological target: NUAK1 (human) (UniProt O60285)
[24] = biological target: NUAK2 (human) (UniProt Q9H093)
[25] = biological target: PAK4 (human) (UniProt O96013)
[26] = biological target: PAK6 (human) (UniProt Q9NQU5)
[27] = biological target: PIM1 (human) (UniProt P11309)
[28] = biological target: PRKACG (human) (UniProt P22612)
[29] = biological target: PRKD2 (human) (UniProt Q9BZL6)
[30] = biological target: PRKG1 (human) (UniProt Q13976)
[31] = biological target: RPS6KA3 KD1 KD2 (human) (UniProt P51812)
[32] = biological target: SGK2 (human) (UniProt Q9HBY8)
[33] = biological target: SRPK2 (human) (UniProt P78362)
[34] = biological target: STK10 (human) (UniProt O94804)
[35] = biological target: STK25 (human) (UniProt O00506)
[36] = biological target: STK39 (human) (UniProt Q9UEW8)
[37] = biological target: TAOK3 (human) (UniProt Q9H2K8)
[38] = biological target: TEK (human) (UniProt Q02763)
[39] = biological target: TSSK2 (human) (UniProt Q96PF2)
[40] = biological target: WNK3 (human) (UniProt Q9BYP7)
WNK3 (human), sequence (Q9BYP7 whole entry, looked up): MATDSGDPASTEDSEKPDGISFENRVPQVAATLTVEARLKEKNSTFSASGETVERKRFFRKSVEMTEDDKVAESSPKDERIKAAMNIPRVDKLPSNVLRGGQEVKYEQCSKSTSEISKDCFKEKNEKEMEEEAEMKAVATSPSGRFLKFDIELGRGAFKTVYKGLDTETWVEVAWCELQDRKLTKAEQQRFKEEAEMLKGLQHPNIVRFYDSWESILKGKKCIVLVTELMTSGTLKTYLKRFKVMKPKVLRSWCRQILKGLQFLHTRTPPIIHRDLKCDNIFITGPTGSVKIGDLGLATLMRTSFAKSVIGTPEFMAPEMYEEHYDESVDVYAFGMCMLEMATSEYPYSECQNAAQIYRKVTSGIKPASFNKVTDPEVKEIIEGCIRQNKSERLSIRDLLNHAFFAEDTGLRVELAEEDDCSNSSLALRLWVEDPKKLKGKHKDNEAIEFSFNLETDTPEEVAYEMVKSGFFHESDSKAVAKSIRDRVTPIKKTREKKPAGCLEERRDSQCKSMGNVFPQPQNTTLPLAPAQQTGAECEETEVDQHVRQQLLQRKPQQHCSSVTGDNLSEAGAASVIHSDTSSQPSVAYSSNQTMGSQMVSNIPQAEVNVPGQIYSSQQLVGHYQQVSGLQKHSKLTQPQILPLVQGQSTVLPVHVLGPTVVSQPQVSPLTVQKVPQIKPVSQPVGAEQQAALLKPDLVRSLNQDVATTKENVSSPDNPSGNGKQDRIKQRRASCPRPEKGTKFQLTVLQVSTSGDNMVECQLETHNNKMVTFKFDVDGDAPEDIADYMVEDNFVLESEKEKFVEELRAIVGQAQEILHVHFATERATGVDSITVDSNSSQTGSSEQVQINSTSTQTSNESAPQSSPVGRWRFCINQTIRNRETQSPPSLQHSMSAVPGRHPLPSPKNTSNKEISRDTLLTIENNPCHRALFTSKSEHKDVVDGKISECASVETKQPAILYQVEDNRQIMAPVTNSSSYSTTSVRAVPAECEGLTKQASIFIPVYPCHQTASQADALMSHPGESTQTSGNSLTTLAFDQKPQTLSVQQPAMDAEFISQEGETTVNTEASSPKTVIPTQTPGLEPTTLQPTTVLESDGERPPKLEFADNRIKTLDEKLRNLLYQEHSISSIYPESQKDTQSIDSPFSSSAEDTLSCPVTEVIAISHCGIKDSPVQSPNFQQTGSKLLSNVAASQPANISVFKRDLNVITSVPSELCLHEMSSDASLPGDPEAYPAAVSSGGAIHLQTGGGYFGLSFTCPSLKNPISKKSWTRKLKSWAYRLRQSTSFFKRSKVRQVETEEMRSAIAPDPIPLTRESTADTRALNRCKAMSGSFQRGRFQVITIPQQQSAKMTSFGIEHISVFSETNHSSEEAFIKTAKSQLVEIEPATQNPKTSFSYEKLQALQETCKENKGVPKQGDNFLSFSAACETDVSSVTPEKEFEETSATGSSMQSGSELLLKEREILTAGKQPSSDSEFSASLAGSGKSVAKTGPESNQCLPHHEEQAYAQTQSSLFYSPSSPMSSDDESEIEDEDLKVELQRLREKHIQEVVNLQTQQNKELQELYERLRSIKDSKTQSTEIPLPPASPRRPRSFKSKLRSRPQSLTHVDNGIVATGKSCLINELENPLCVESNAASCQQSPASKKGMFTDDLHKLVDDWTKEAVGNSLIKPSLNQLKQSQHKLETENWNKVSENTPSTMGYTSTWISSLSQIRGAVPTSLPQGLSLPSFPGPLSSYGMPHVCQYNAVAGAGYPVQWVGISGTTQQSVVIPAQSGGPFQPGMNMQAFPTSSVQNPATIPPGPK

MAPK3 (human), sequence (P27361 whole entry, looked up): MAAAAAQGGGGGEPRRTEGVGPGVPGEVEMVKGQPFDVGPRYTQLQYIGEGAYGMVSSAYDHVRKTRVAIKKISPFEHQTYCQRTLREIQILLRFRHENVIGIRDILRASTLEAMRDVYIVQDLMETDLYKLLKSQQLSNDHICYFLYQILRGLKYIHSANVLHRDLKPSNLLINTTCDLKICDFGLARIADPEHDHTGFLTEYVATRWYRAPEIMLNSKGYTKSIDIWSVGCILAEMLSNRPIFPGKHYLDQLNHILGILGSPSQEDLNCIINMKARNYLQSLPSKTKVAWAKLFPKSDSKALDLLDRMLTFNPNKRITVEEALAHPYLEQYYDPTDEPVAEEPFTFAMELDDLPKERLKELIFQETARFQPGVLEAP
MELK (human), sequence (Q14680 whole entry, looked up): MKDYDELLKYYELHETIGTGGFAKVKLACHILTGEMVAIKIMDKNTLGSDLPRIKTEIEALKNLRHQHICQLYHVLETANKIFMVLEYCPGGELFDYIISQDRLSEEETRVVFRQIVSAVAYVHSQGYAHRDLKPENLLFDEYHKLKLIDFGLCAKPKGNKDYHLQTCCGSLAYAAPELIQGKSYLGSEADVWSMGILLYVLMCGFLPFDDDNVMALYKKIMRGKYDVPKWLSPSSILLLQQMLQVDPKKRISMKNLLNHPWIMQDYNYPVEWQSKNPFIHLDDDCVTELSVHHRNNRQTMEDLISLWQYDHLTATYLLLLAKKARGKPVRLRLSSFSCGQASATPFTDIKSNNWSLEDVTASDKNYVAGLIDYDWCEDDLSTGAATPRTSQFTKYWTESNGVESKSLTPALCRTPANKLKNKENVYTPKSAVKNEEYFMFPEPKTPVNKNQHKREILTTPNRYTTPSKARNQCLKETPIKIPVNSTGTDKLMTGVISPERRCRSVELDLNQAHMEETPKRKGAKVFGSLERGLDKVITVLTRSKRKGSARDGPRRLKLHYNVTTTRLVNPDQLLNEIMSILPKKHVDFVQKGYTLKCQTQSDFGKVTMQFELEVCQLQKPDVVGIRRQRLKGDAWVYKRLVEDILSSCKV
HIPK4 (human), sequence (Q8NE63 whole entry, looked up): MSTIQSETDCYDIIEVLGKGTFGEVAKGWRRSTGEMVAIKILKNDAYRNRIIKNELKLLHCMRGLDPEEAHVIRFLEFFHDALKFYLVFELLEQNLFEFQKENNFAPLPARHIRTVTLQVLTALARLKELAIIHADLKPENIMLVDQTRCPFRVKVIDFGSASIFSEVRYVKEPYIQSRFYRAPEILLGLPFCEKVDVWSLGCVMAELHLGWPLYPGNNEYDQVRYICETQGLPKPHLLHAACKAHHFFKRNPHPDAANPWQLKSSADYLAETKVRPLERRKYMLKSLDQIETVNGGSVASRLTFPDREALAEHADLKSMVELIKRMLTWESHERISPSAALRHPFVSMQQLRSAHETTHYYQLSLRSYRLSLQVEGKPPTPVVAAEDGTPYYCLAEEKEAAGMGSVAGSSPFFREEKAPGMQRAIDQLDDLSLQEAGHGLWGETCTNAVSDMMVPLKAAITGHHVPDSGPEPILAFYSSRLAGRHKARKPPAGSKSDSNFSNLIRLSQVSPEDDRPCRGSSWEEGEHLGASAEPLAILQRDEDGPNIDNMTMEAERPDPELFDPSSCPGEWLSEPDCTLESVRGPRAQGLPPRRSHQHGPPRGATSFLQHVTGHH
PRKG1 (human), sequence (Q13976 whole entry, looked up): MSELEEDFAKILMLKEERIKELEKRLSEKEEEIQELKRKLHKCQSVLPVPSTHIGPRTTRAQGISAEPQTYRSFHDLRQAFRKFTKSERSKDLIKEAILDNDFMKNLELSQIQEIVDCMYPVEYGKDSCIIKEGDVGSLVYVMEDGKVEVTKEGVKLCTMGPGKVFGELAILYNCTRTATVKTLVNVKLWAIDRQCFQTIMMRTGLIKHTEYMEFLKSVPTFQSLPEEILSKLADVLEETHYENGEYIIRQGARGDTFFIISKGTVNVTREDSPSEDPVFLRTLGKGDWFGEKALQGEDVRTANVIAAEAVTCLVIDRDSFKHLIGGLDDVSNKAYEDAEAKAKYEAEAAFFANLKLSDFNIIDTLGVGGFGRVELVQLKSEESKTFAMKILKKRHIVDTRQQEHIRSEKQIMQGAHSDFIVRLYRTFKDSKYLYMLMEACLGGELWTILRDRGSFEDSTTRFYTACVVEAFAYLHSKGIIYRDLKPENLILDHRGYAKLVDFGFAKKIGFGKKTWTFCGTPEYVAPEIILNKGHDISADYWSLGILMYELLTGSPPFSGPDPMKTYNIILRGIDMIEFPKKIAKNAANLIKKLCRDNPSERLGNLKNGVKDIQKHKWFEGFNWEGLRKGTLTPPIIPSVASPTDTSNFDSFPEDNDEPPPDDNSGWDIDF
TSSK2 (human), sequence (Q96PF2 whole entry, looked up): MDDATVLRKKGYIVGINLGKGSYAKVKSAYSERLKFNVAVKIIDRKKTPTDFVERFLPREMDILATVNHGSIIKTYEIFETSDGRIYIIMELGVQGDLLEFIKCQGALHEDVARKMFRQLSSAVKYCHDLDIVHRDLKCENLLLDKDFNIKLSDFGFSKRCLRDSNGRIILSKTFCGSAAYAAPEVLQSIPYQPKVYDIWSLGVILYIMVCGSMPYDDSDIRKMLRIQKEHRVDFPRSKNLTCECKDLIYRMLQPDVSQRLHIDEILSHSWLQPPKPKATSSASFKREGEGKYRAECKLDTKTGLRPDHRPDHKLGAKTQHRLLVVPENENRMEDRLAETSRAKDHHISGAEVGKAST
CLK2 (human), sequence (P49760 whole entry, looked up): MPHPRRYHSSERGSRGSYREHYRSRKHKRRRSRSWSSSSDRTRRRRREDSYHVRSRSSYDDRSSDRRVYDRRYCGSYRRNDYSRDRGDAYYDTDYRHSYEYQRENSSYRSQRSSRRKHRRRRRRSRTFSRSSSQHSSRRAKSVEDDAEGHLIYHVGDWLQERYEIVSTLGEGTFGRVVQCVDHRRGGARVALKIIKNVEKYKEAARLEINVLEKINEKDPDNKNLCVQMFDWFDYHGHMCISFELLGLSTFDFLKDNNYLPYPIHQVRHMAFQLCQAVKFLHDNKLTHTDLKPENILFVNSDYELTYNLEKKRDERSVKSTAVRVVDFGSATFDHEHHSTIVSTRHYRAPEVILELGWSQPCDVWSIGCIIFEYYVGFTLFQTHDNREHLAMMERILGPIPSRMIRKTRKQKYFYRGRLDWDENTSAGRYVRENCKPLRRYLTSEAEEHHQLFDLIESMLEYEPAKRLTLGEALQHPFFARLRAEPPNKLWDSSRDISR

Nc1ccc2ncnc(NCCc3ccc(Oc4ccccc4)cc3)c2c1
residual activity [1]: 101%
residual activity [2]: 99.1%
residual activity [3]: 96.1%
residual activity [4]: 119%
residual activity [5]: 94.8%
residual activity [6]: 101%
residual activity [7]: 83%
residual activity [8]: 102%
residual activity [9]: 103%
residual activity [10]: 98.5%
residual activity [11]: 70.2%
residual activity [12]: 97.4%
residual activity [13]: 95.6%
residual activity [14]: 99.7%
residual activity [15]: 98.5%
residual activity [16]: 91.9%
residual activity [17]: 103%
residual activity [18]: 98.1%
residual activity [19]: 105%
residual activity [20]: 108%
residual activity [21]: 96.8%
residual activity [22]: 97.2%
residual activity [23]: 94.7%
residual activity [24]: 112%
residual activity [25]: 105%
residual activity [26]: 105%
residual activity [27]: 102%
residual activity [28]: 110%
residual activity [29]: 98.2%
residual activity [30]: 93.1% and 94.5%
residual activity [31]: 101%
residual activity [32]: 99.6%
residual activity [33]: 95.3%
residual activity [34]: 90.8%
residual activity [35]: 116%
residual activity [36]: 83.9%
residual activity [37]: 102%
residual activity [38]: 99%
residual activity [39]: 94.5%
residual activity [40]: 114%

Cc1ccc(Nc2nccc(N(C)c3ccc4c(C)n(C)nc4c3)n2)cc1S(N)(=O)=O
residual activity [1]: 107%
residual activity [2]: 64.6%
residual activity [3]: 78.1%
residual activity [4]: 72%
residual activity [5]: 93.5%
residual activity [6]: 96.5%
residual activity [7]: 90.9%
residual activity [8]: 100%
residual activity [9]: 99.8%
residual activity [10]: 94.5%
residual activity [11]: 86.9%
residual activity [12]: 109%
residual activity [13]: 87%
residual activity [14]: 10.9%
residual activity [15]: 109%
residual activity [16]: 28.5%
residual activity [17]: 10.6%
residual activity [18]: 93.3%
residual activity [19]: 102%
residual activity [20]: 99.6%
residual activity [21]: 87.5%
residual activity [22]: 97.8%
residual activity [23]: 53.4%
residual activity [24]: 93.8%
residual activity [25]: 92%
residual activity [26]: 105%
residual activity [27]: 100%
residual activity [28]: 111%
residual activity [29]: 90.8%
residual activity [30]: 103% and 95.1%
residual activity [31]: 99.1%
residual activity [32]: 160%
residual activity [33]: 104%
residual activity [34]: 50.1%
residual activity [35]: 97.3%
residual activity [36]: 95.9%
residual activity [37]: 55.5%
residual activity [38]: 69.3%
residual activity [39]: 102%
residual activity [40]: 98.6%

O=C1NC(=O)c2c1c1c3ccccc3n3c1c1c2c2ccccc2n1C1CCC3O1
residual activity [1]: 48.5%
residual activity [2]: 9.52%
residual activity [3]: 38.1%
residual activity [4]: 27.2%
residual activity [5]: 71.5%
residual activity [6]: 6.06%
residual activity [7]: 52.1%
residual activity [8]: 104%
residual activity [9]: 4.47%
residual activity [10]: 91.4%
residual activity [11]: 72.5%
residual activity [12]: 29.1%
residual activity [13]: 23.9%
residual activity [14]: 60.8%
residual activity [15]: 1.91%
residual activity [16]: 2.66%
residual activity [17]: 8.72%
residual activity [18]: 108%
residual activity [19]: 102%
residual activity [20]: 99.2%
residual activity [21]: 7.13%
residual activity [22]: 87.7%
residual activity [23]: 2.09%
residual activity [24]: 52%
residual activity [25]: 75.3%
residual activity [26]: 85.4%
residual activity [27]: 0.435%
residual activity [28]: 39.8%
residual activity [29]: 2.02%
residual activity [30]: 35.7% and 41.3%
residual activity [31]: 2.35%
residual activity [32]: 18.6%
residual activity [33]: 107%
residual activity [34]: 9.25%
residual activity [35]: 34.4%
residual activity [36]: 88.3%
residual activity [37]: 24.5%
residual activity [38]: 94.1%
residual activity [39]: 87.1%
residual activity [40]: 86%

CO[C@H]1CC2CC[C@@H](C)[C@@](O)(O2)C(=O)C(=O)N2CCCC[C@H]2C(=O)OC([C@H](C)C[C@@H]2CC[C@@H](O)[C@H](OC)C2)CC(=O)[C@H](C)/C=C(\C)[C@@H](O)[C@@H](OC)C(=O)[C@H](C)C[C@H](C)/C=C/C=C/C=C/1C (stereo not given in full)
residual activity [1]: 96.1%
residual activity [2]: 95.2%
residual activity [3]: 99.5%
residual activity [4]: 118%
residual activity [5]: 102%
residual activity [6]: 99.8%
residual activity [7]: 102%
residual activity [8]: 99.3%
residual activity [9]: 94.2%
residual activity [10]: 115%
residual activity [11]: 88.7%
residual activity [12]: 92.9%
residual activity [13]: 99.4%
residual activity [14]: 95.7%
residual activity [15]: 98.7%
residual activity [16]: 109%
residual activity [17]: 87.3%
residual activity [18]: 113%
residual activity [19]: 104%
residual activity [20]: 101%
residual activity [21]: 97.8%
residual activity [22]: 97%
residual activity [23]: 101%
residual activity [24]: 140%
residual activity [25]: 97.1%
residual activity [26]: 112%
residual activity [27]: 104%
residual activity [28]: 113%
residual activity [29]: 99%
residual activity [30]: 91%
residual activity [31]: 105%
residual activity [32]: 101%
residual activity [33]: 104%
residual activity [34]: 97.7%
residual activity [35]: 129%
residual activity [36]: 97.9%
residual activity [37]: 106%
residual activity [38]: 97.6%
residual activity [39]: 99.8%
residual activity [40]: 102%

Oc1cccc(-c2nc(N3CCOCC3)c3oc4ncccc4c3n2)c1
residual activity [1]: 99.1%
residual activity [2]: 99.4%
residual activity [3]: 105%
residual activity [4]: 84.6%
residual activity [5]: 93.9%
residual activity [6]: 95.6%
residual activity [7]: 88%
residual activity [8]: 87.9%
residual activity [9]: 56.2%
residual activity [10]: 96.4%
residual activity [11]: 97.6%
residual activity [12]: 107%
residual activity [13]: 98.8%
residual activity [14]: 88.9%
residual activity [15]: 101%
residual activity [16]: 92%
residual activity [17]: 103%
residual activity [18]: 103%
residual activity [19]: 94.1%
residual activity [20]: 97.8%
residual activity [21]: 75.5%
residual activity [22]: 94.3%
residual activity [23]: 86.6%
residual activity [24]: 75.3%
residual activity [25]: 90.7%
residual activity [26]: 105%
residual activity [27]: 91.2%
residual activity [28]: 101%
residual activity [29]: 93.8%
residual activity [30]: 109% and 96.3%
residual activity [31]: 101%
residual activity [32]: 96.7%
residual activity [33]: 97.3%
residual activity [34]: 92.1%
residual activity [35]: 93.4%
residual activity [36]: 105%
residual activity [37]: 86.8%
residual activity [38]: 87.7%
residual activity [39]: 102%
residual activity [40]: 93.9%
